The values below come from patent US20230295114A1, “AKT3 MODULATORS” (Georgiamune LLC, priority 2020, published 2023).

One test deals with T1, Akt3 (Homo sapiens, UniProt Q9Y243).
T1 construct: endogenous in cells
T1 sequence (Q9Y243 whole entry): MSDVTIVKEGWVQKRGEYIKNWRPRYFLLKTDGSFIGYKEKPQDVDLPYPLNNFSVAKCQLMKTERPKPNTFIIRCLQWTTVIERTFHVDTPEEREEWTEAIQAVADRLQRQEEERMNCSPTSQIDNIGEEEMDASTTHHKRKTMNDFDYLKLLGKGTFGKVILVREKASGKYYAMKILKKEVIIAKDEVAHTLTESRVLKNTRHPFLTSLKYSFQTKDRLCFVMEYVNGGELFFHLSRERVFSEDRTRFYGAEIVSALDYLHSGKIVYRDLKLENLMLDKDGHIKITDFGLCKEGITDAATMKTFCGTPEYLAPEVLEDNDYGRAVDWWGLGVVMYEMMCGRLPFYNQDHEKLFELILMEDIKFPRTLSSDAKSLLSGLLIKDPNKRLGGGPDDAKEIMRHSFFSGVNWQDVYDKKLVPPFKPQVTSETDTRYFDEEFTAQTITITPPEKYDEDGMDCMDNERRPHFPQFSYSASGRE
In words: Akt3 activation activity of selected compounds. The format is cell-based.
For `Cc1cc(Nc2ccc3[nH]c(-c4ccc(Nc5ccnc6ccc(N(C)C)cc56)cc4)nc3c2)ccn1` [Compound 37, N^6,N^6-dimethyl-N^4-(4-(5-((2-methylpyridin-4-yl)amino)-1H-benzo [d]imidazol-2-yl)phenyl)quinoline-4,6-diamine], the half-maximal effective concentration (EC50) was under 5000 nM.

`Cc1cc(Nc2ccc3[nH]c(-c4ccc(Nc5ccnc6ccc(N7CCOCC7)cc56)cn4)nc3c2)ccn1` [Compound 69, N-(6-(5-((2-methylpyridin-4-yl)amino)-1H-benzo[d]imidazol-2-yl)pyridin-3-yl)-6-morpholinoquinolin-4-amine] yielded an EC50 of under 20 nM.

The compound `Cc1cc(Nc2ccc3[nH]c(-c4ccc(Nc5cc(C)nc6ccc(N7CCOCC7)cc56)cn4)nc3n2)ccn1` [Compound 70, 2-methyl-N-(6-(5-(2-methylpyridin-4-ylamino)-1H-imidazo [4,5-b]pyridin-2-yl)pyridin-3-yl)-6-morpholinoquinolin-4-amine] came in with a concentration giving a half-maximal response (EC50) of under 2000 nM.

Compound `Cc1cc(Nc2ccc3[nH]c(-c4ccc(Nc5ccnc6ccc(N7CCOCC7)cc56)nc4)nc3c2)ccn1` [Compound 71, N-(5-(5-((2-methylpyridin-4-yl)amino)-1H-benzo[d]imidazol-2-yl)pyridin-2-yl)-6-morpholinoquinolin-4-amine] displayed an EC50 of under 50 nM.

Consider `Cc1cc(Nc2ccc3[nH]c(-c4ccc(Nc5cc(C)nc6ccc(N7CCOCC7)cc56)nc4)nc3c2)ccn1` [Compound 73, 2-methyl-N-(5-(5-(2-methylpyridin-4-ylamino)-1H-benzo[d]imidazol-2-yl)pyridin-2-yl)-6-morpholinoquinolin-4-amine], for which the 50% effective concentration (EC50) was under 50 nM.

Regarding `Cc1cc(Nc2ccc3[nH]c(-c4ccc(Nc5cc(C)nc6ccc(N7CCOCC7)cc56)cn4)nc3c2)ccn1` [Compound 74, 2-methyl-N-(6-(5-(2-methylpyridin-4-ylamino)-1H-benzo[d]imidazol-2-yl)pyridin-3-yl)-6-morpholinoquinolin-4-amine], the EC50 was under 50 nM.

As for `Cc1cc(Nc2ccc3[nH]c(-c4ccc(Nc5ccnc6ccc(N7CC(C)OC(C)C7)cc56)cc4)nc3c2)ccn1` (stereo not drawn) [Compound 75, 6-(2,6-dimethylmorpholino)-N-(4-(5-((2-methylpyridin-4-yl)amino)-1H-benzo[d]imidazol-2-yl)phenyl)quinolin-4-amine], the 50% effective concentration (EC50) was under 20 nM.

Take `Cc1cc(Nc2ccc3[nH]c(-c4ccc(Nc5cc(C)nc6ccc(N7CC(C)OC(C)C7)cc56)cc4)nc3c2)ccn1` (stereo not drawn) [Compound 76, 6-(2,6-dimethylmorpholino)-2-methyl-N-(4-(5-(2-methylpyridin-4-ylamino)-1H-benzo[d]imidazol-2-yl)phenyl)quinolin-4-amine]: the 50% effective concentration (EC50) was under 50 nM.

Take `Cc1cc(Nc2ccc3[nH]c(-c4ccc(Nc5cc(C)nc6ccc(N7CC(C)OC(C)C7)cc56)cn4)nc3c2)ccn1` (stereo not drawn) [Compound 77, 6-(2,6-dimethylmorpholino)-2-methyl-N-(6-(5-(2-methylpyridin-4-ylamino)-1H-benzo[d]imidazol-2-yl)pyridin-3-yl)quinolin-4-amine]: the concentration giving a half-maximal response (EC50) is under 50 nM.

A further test addresses T1, Akt3. Nature of the test: Akt3 inhibition activity of selected compounds. It counts as cell-based.
In turn, `O=C(Nc1cccc(Nc2ccncc2)c1)c1ccc(Nc2ccnc3ccc(F)cc23)cc1` [Compound 2, 4-((6-fluoroquinolin-4-yl)amino)-N-(3-(pyridin-4-ylamino)phenyl)benzamide] yielded an IC50 of under 1000 nM.

The compound `O=C(Nc1cccc(Nc2ccncc2)c1)c1ccc(Nc2ccnc3ccccc23)cc1` [Compound 5, N-(3-(pyridin-4-ylamino)phenyl)-4-(quinolin-4-ylamino)benzamide] displayed a 50% inhibitory concentration (IC50) of under 2000 nM.

As for `O=C(Nc1cccc(Nc2ccncc2)c1)c1ccc(Nc2ccncc2)cc1` [Compound 10, 4-(pyridin-4-ylamino)-N-(3-(pyridin-4-ylamino)phenyl)benzamide], the IC50 is under 1000 nM.

In the case of `Cc1cnc2ccccc2c1Nc1ccc(C(=O)Nc2cccc(Oc3ccncc3)c2)cc1` [Compound 13, 4-((3-methylquinolin-4-yl)amino)-N-(3-(pyridin-4-yloxy)phenyl)benzamide], the IC50 is under 5000 nM.

As for `Cc1cnc2ccccc2c1Nc1ccc(C(=O)Nc2cccc(Nc3ccncc3)c2)cc1` [Compound 14, 4-((3-methylquinolin-4-yl)amino)-N-(3-(pyridin-4-ylamino)phenyl)benzamide], the IC50 is under 500 nM.

`Cc1cc(Nc2ccc(C(=O)Nc3cccc(Oc4ccncc4)c3)cc2)c2ccccc2n1` [Compound 15, 4-((2-methylquinolin-4-yl)amino)-N-(3-(pyridin-4-yloxy)phenyl)benzamide] gave an IC50 of under 2000 nM.

As for `Cc1ccc2c(Nc3ccc(C(=O)Nc4cccc(Oc5ccncc5)c4)cc3)ccnc2c1` [Compound 17, 4-((7-methylquinolin-4-yl)amino)-N-(3-(pyridin-4-yloxy)phenyl)benzamide], the IC50 is under 5000 nM.

For `Cc1cc(Nc2cccc(NC(=O)c3ccc(Nc4ccncc4)cc3)c2)ccn1` [Compound 22, N-(3-((2-methylpyridin-4-yl)amino)phenyl)-4-(pyridin-4-ylamino)benzamide], the IC50 was under 2000 nM.

`Cc1cc(Nc2ccc(C(=O)Nc3cccc(Nc4ccnc(C)c4)c3)cc2)ccn1` [Compound 23, 4-((2-methylpyridin-4-yl)amino)-N-(3-((2-methylpyridin-4-yl)amino)phenyl)benzamide] had a half-inhibitory concentration (IC50) of under 2000 nM.

As for `O=C(Nc1cc(Nc2ccncc2)ccn1)c1ccc(Nc2ccncc2)cc1` [Compound 24, 4-(pyridin-4-ylamino)-N-(4-(pyridin-4-ylamino)pyridin-2-yl)benzamide], the IC50 is under 5000 nM.

`N#Cc1cc(Nc2cccc(NC(=O)c3ccc(Nc4ccncc4)cc3)c2)ccn1` [Compound 30, N-(3-(2-cyanopyridin-4-ylamino)phenyl)-4-(pyridin-4-ylamino)benzamide] came in with an IC50 of under 5000 nM.

In turn, `O=C(Nc1cccc(Nc2ccnc(F)c2)c1)c1ccc(Nc2ccncc2)cc1` [Compound 31, N-(3-(2-fluoropyridin-4-ylamino)phenyl)-4-(pyridin-4-ylamino)benzamide] came in with an IC50 of under 1000 nM.

With `Cc1c(Nc2cccc(NC(=O)c3ccc(Nc4ccncc4)cc3)c2)ccnc1N` [Compound 92, N-(3-(2-amino-3-methylpyridin-4-ylamino)phenyl)-4-(pyridin-4-ylamino)benzamide], the 50% inhibitory concentration (IC50) was under 5000 nM.

As to `Nc1cc(Nc2cccc(NC(=O)c3ccc(Nc4ccncc4)cc3)c2)ccn1` [Compound 93, N-(3-(2-aminopyridin-4-ylamino)phenyl)-4-(pyridin-4-ylamino)benzamide], the IC50 was under 2000 nM.

In turn, `Cc1cc(Nc2cccc(NC(=O)c3ccc(Nc4ccncc4)cc3)c2)cc(N)n1` [Compound 94, N-(3-(2-amino-6-methylpyridin-4-ylamino)phenyl)-4-(pyridin-4-ylamino)benzamide] had a half-maximal inhibitory concentration (IC50) of under 2000 nM.

One may read the EC50 as the midpoint of the concentration-response curve. In general, IC50 refers to the concentration that inhibits the measured activity by half.
